Measured values from patent publication US20160297763A1, “Heteroaryl hydroxamic acid derivatives and their use in the treatment, amelioration or prevention of a viral disease” (priority 2011, published 2016).
Like-named read-outs stand apart in the source and are kept apart here.

How the values were obtained:
[1] = target: PB2 cap binding domain (CBD) (Influenza A virus, UniProt Q9Q0V1); assay: biochemical; parameters: species or system avian H5N1 influenza virus
[2] = system: influenza A virus A/Aichi/2/68 (H3N2); assay: Cytopathic effect (CPE) assay H3N2; format: cell-based, influenza A virus (H3N2) on MDCK cells; settings: for inhibition at 20 µM: H3N2, activity conc 20 (μM per method); for inhibition at 10 µM: H3N2, activity conc 10 (μM per method)
Experimental: A possible measure of the […] antiviral activity of the compounds having the formula I or II is the CPE assay disclosed herein. […] In this connection, the reduction in the virus-mediated cytopathic effect (CPE) upon treatment with the compounds was calculated as follows: The cell viability of infected-treated and uninfected-treated cells was determined using an ATP-based cell viability assay (Promega). The response in relative luminescent units (RLU) of infected-untreated samples was subtracted from the response (RLU) of the infected-treated samples and then normalized to the viability of the corresponding uninfected sample resulting in % CPE reduction.
The influenza A virus (IAV) was obtained from American Tissue Culture Collection (A/Aichi/2/68 (H3N2); VR-547). Virus stocks were prepared by propagation of virus on Mardin-Darby canine kidney (MDCK; ATCC CCL-34) cells and infectious titres of virus stocks were determined by the 50% tissue culture infective dose (TCID50) analysis as described in Reed, L. J., and H. Muench. 1938, Am. J. Hyg. 27:493-497.
MDCK cells were seeded in 96-well plates at 2×10^4 cells/well using DMEM/Ham's F-12 (1:1) medium containing 10% foetal bovine serum (FBS), 2 mM L-glutamine and 1 antibiotics (all from PAA). Until infection the cells were incubated for 5 hrs at 37° C., 5.0 CO2 to form a ˜80% confluent monolayer on the bottom of the well. Each test compound was dissolved in DMSO and generally tested at 25 μM and 250 μM. In those cases where the compounds were not soluble at that concentration they were tested at the highest soluble concentration. The compounds were diluted in infection medium (DMEM/Ham's F-12 (1:1) containing 5 μg/ml trypsin, and 1% antibiotics) for a final plate well DMSO concentration of 1%. The virus stock was diluted in infection medium (DMEM/Ham's F-12 (1:1) containing 5 μg/ml Trypsin, 1% DMSO, and 1% antibiotics) to a theoretical multiplicity of infection (MOI) of 0.05.
After removal of the culture medium and one washing step with PBS, virus and compound were added together to the cells. In the wells used for cytotoxicity determination (i.e. in the absence of viral infection), no virus suspension was added. Instead, infection medium was added. Each treatment was conducted in two replicates. After incubation at 37° C., 5% CO2 for 48 hrs, each well was observed microscopically for apparent cytotoxicity, precipitate formation, or other notable abnormalities. Then, cell viability was determined using CellTiter-Glo luminescent cell viability assay (Promega). The supernatant was removed carefully and 65 μl of the reconstituted reagent were added to each well and incubated with gentle shaking for 15 min at room temperature. Then, 60 μl of the solution was transferred to an opaque plate and luminescence (RLU) was measured using Synergy HT plate reader (Biotek).
Relative cell viability values of uninfected-treated versus uninfected-untreated cells were used to evaluate cytotoxicity of the compounds. Substances with a relative viability below 80% at the tested concentration were regarded as cytotoxic and retested at lower concentrations.
Reduction in the virus-mediated cytopathic effect (CPE) upon treatment with the compounds was calculated as follows: The response (RLU) of infected-untreated samples was subtracted from the response (RLU) of the infected-treated samples and then normalized to the viability of the corresponding uninfected sample resulting in % CPE reduction.

[3] = Influenza A virus, read-out: CPE H3N2 reduction (%)
[4] = Influenza A virus, H3N2, activity conc 25 (μM per method), read-out: CPE H3N2 reduction (%)
[5] = Influenza A virus, H3N2, activity conc 2 (μM per method), read-out: CPE H3N2 reduction (%)
[6] = Influenza A virus, H3N2, read-out: CPE H3N2 IC50
[7] = Influenza A virus, H3N2, read-out: CPE H3N2 reduction (%), activity conc 50 (μM per method)
[8] = Influenza A virus, H3N2, activity conc 50 (μM per method), read-out: CPE H3N2 reduction (%)
[9] = Influenza A virus, H3N2, activity conc 5 (μM per method), read-out: CPE H3N2 reduction (%)

Sequence of PB2 cap binding domain (CBD) (Q9Q0V1 318-483 limits assumed): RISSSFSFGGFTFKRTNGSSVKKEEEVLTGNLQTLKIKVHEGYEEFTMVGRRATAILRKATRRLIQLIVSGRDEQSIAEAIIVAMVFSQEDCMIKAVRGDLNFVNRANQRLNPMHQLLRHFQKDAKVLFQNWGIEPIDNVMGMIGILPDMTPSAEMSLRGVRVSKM

Cc1c(-c2ccnc(C(F)(F)F)c2)sc2nc(N)[nH]c(=O)c12 [SAV-7625]
Kd [1]: 12 µM | inhibition at 2.5 µM ([2]; Influenza A virus, H3N2, activity conc 2.5 (μM per method), read-out: CPE H3N2 reduction (%)): -4%

COc1ccc(-c2sc3nc(N)[nH]c(=O)c3c2C)cc1 [SAV-7575]
Kd [1]: 4 µM | inhibition at 20 µM [2, 3]: 9.02%

Cc1c(Cc2ccccc2)sc2nc(N)[nH]c(=O)c12 [SAV-7521]
Kd [1]: 6 µM | inhibition at 25 µM [2, 4]: 33.6%

Cc1c(-c2cccc(Cl)c2)sc2nc(N)[nH]c(=O)c12 [SAV-7580]
Kd [1]: 8.9 µM | IC50 ([2]; Influenza A virus, H3N2, read-out: CPE H3N2 IC50 [μM]): 11 µM | CPE H3N2 reduction (%) ([2]; activity conc 2 (μM per method)): 89.8%

Cc1c(-c2cc(C#N)ccc2Cl)sc2nc(N)[nH]c(=O)c12 [SAV-7617]
Kd [1]: 2 µM | inhibition at 2 µM [2, 5]: 5.1%

Cc1cccc(-c2sc3nc(N)[nH]c(=O)c3c2C)c1 [SAV-7607]
Kd [1]: 5.4 µM | inhibition at 2 µM [2, 5]: -0.4%

Cc1c(-c2ccc(Cl)c(C(=O)N(C)C)c2)sc2nc(N)[nH]c(=O)c12 [SAV-7626]
Kd [1]: 6.4 µM | inhibition at 25 µM [2, 4]: -4.6%

Cc1c(-c2ccncc2)sc2nc(N)[nH]c(=O)c12 [SAV-7586]
Kd [1]: 12 µM | inhibition at 15 µM ([2]; Influenza A virus, H3N2, activity conc 15 (μM per method), read-out: CPE H3N2 reduction (%)): 81.2% | IC50 [2, 6]: 5.3 µM

Cc1c(-c2cc(C(F)(F)F)cc(C(F)(F)F)c2)sc2nc(N)[nH]c(=O)c12 [SAV-7600]
Kd [1]: 3.8 µM | inhibition at 2 µM ([2]; Influenza A virus, H3N2, read-out: CPE H3N2 reduction (%), activity conc 2 (μM per method)): 5.8%

Cc1c(-c2cc(CN(C)C)ccc2F)sc2nc(N)[nH]c(=O)c12 [SAV-7630]
Kd [1]: 57 µM | inhibition at 50 µM [2, 7]: 23.2%

CC(c1ccccc1)c1cc2c(=O)[nH]c(N)nc2s1 (stereo not drawn) [SAV-7604]
Kd [1]: 6.4 µM | inhibition at 20 µM [2, 3]: -4.7%

Nc1nc2sc(Cc3ccccc3)cc2c(=O)[nH]1 [SAV-7517]
Kd [1]: 13 µM | inhibition at 10 µM [2, 3]: -2.64%

Cc1c(-c2cccnc2)sc2nc(N)[nH]c(=O)c12 [SAV-7589]
Kd [1]: 10 µM | inhibition at 50 µM [2, 8]: 63.1% | IC50 [2, 6]: 27 µM

Cc1c(-c2cccc(C#N)c2)sc2nc(N)[nH]c(=O)c12 [SAV-7594]
Kd [1]: 2 µM | inhibition at 5 µM [2, 9]: 14.5% | IC50 [2, 6]: 14 µM

Nc1nc2sc(-c3ccccc3)cc2c(=O)[nH]1 [SAV-7549]
Kd [1]: 8.8 µM | inhibition at 50 µM [2, 8]: -2.4%

Cc1c(-c2cnccn2)sc2nc(N)[nH]c(=O)c12 [SAV-7608]
Kd [1]: 5.7 µM | inhibition at 10 µM [2, 3]: 3.8%

Cc1c(-c2ccc(F)nc2F)sc2nc(N)[nH]c(=O)c12 [SAV-7621]
Kd [1]: 70 µM | inhibition at 25 µM ([2]; Influenza A virus, H3N2, read-out: CPE H3N2 reduction (%), activity conc 25 (μM per method)): 14.3%

Cc1ccccc1-c1sc2nc(N)[nH]c(=O)c2c1C [SAV-7596]
Kd [1]: 11 µM | inhibition at 5 µM [2, 9]: 13.6%

Cc1c(-c2cccc(Cl)c2F)sc2nc(N)[nH]c(=O)c12 [SAV-7616]
Kd [1]: 3.1 µM | inhibition at 10 µM [2, 3]: 68.7% | IC50 [2, 6]: 34 µM

Cc1c(-c2ccc(Cl)c(C#N)c2)sc2nc(N)[nH]c(=O)c12 [SAV-7602]
Kd [1]: 1.7 µM | inhibition at 20 µM [2, 3]: 67.9%

Cc1c(-c2ccc(Cl)c(O)c2)sc2nc(N)[nH]c(=O)c12 [SAV-7622]
Kd [1]: 2.4 µM | inhibition at 2 µM [2, 5]: 6.2%

Cc1c(-c2ccccc2F)sc2nc(N)[nH]c(=O)c12 [SAV-7598]
Kd [1]: 3.7 µM | inhibition at 2 µM [2, 5]: 11.4%

Cc1c(-c2ccc(Cl)cc2)sc2nc(N)[nH]c(=O)c12 [SAV-7579]
Kd [1]: 0.27 µM | inhibition at 20 µM [2, 3]: 11.3%

Nc1nc2sc(-c3ccccc3)c(Cl)c2c(=O)[nH]1 [SAV-7639]
Kd [1]: 1.8 µM | inhibition at 50 µM [2, 7]: 59.9%

Cc1c(-c2ccccc2)sc2nc(NCCCO)[nH]c(=O)c12 [SAV-7582]
Kd [1]: 4.2 µM | inhibition at 50 µM [2, 8]: 53.1%

Cc1c(-c2ccc(F)c(C#N)c2)sc2nc(N)[nH]c(=O)c12 [SAV-7611]
Kd [1]: 1.1 µM | inhibition at 2 µM [2, 5]: -1%

Cc1c(-c2ccc(Cl)nc2)sc2nc(N)[nH]c(=O)c12 [SAV-7632]
Kd [1]: 0.75 µM | inhibition at 50 µM [2, 7]: 53%

CC1=C(c2cccc(F)c2)SC2N=C(N)NC(=O)C12 (stereo not drawn) [SAV-7606]
Kd [1]: 8 µM | inhibition at 5 µM [2, 9]: 21.8%

Cc1c(-c2cccc(CN(C)C)c2)sc2nc(N)[nH]c(=O)c12 [SAV-7629]
Kd [1]: 61 µM | inhibition at 50 µM [2, 8]: 38.3% | IC50 [2, 6]: 35 µM

Nc1nc2sc(-c3ccccc3)c(Br)c2c(=O)[nH]1 [SAV-7631]
Kd [1]: 0.66 µM | inhibition at 5 µM ([2]; Influenza A virus, H3N2, read-out: CPE H3N2 reduction (%), activity conc 5 (μM per method)): 4%
